Test results published in patent US4045556A, “Dipeptide derivatives, process for manufacture and pharmaceutical preparations” (priority 1974, dated 1977).

Legend:
Format in all cases: in vivo
[1] = tested on: thyrotropin release; experiment: thyrotropin release (endocrinological properties), standard tests; conditions: comparison with TRH
Source text: The endocrinological properties of typical compounds of the invention, such as L-2-oxo-imidazolidine-4-carbonyl-L-histidyl-L-prolinamide-dihydrate (Compound A) and of orotyl-L-histidyl-L-prolinamide-dihydrate (Compound B) are compared to that of TRH, the thyrotropin-releasing hormone.

[2] = tested on: lowering of body temperature caused by reserpine in mice; experiment: body temperature test (reserpine hypothermy); set-up: sum of the differences between the measured values and the initial temperature: unit not given here; conditions: for sum of the differences between the measured values and the initial temperature: reserpine 8 mg/kg i.p. 24 h before, rectal temperature every 20 min over 3 h; for effectiveness in counteracting the lowering of body temperature caused by reserpine, compared with TRH: result in words
Protocol: A series of standard tests were run.
Mice are intraperitoneally injected with 8 mg of reserpine per kilogram of body weight with a solution of reserpine, in 5% of ascorbic acid. After twenty-four hours the temperature of the animal has considerably dropped to a temperature, hereinafter designated as the "initial temperature", which is the reference temperature against which the effect of the compounds is measured. Then the test substance is injectd intraperitoneally. Thereafter, every twenty minutes, the temperature (rectal) is recorded over three hours. The sum of the differences between the measured values and the initial temperature are noted. These are reported below for different dosages.

[3] = tested on: reserpine-pretreated mice (hypomobility); experiment: test of motility (reserpine hypomotility); set-up: motility measurement: unit not given here; conditions: for motility measurement: mice, reserpine 5 mg/kg i.p. 10-20 h before, photocell activity cage; for stimulation of the mobility of animals: reserpine-pretreated mice, result in words
Protocol: Test mice were injected ten to twenty hours before the experiment with 5 mg of reserpine per kilogram of body weight, intraperitoneally. The animals developed until the beginning of the experiment a marked hypomobility. The test substances (TRH, A, B and C) are then injected intraperitoneally to groups of ten mice. Another group of ten mice pretreated with reserpine only acted as control group. The movement and activity of the animals are determined, measured and registered, the animals being confined in a photocell activity cage.
The average motility measurement for the reserpine pretreated control animals is 14.2, the untreated mice is 123.

[4] = tested on: toxicity of amphetamine in mice; experiment: amphetamine group toxicity (mortality rate); conditions: 15 min later amphetamine 7 mg/kg
Protocol: It is known that the toxicity of amphetamine is increased by administration of anti-depressive compounds, especially those that have a central nervous system stimulating activity, this activity being evidenced by an increased mortality in the test.
The test substances were intraperitoneally injected and fifteen minutes later the test animals were administered amphetamine in a dose of 7 mg per kilogram. […] Those animals which were treated only with amphetamine, as control, were still all alive at that time.

[5] = tested on: rats; experiment: wet dog shaking test; conditions: 25 mg/kg i.p.
Protocol: The stimulant activity of Compound B is also shown in the "wet dog shaking" test of rats (standard test listed below).
Compound B was injected intraperitoneally and the animal activity is periodically observed. The effect of the substance is measured by the average number of shaking movements per minute. The dosage applied is 25 mg of substance/kilogram of body weight.

[6] = tested on: rats; experiment: LD50 in rats
Protocol: (§1) For instance with Substance B the following values of the LD50 were determined: […]

[7] = tested on: mice; experiment: LD50 in mice
Protocol: as §1

[8] = tested on: central nervous system of test animals; experiment: central stimulation action in pharmacological tests; conditions: equal doses of TRH and compound
Source text: The compounds of formula I may be administered orally or parenterally. Their effects are observed quickly. For instance, on parenteral administration the effects occur already after ten minutes.
The most remarkable effects of the new products indicated in pharmacological tests is a central stimulation action.

With NC(=O)[C@@H]1CCCN1C(=O)[C@H](Cc1c[nH]cn1)NC(=O)C1CNC(=O)N1.O.O (stereo partly drawn) [Compound A, L-2-oxo-imidazolidine-4-carbonyl-L-histidyl-L-prolinamide-dihydrate] as the molecule, how does the “dose required relative to TRH to obtain an equally marked thyrotropin release” value [1] read?
The value was “ten-times greater dose than TRH”.

And the “sum of the differences between the measured values and the initial temperature” value ([2]; substance 2 mg/kg i.p.)?
The value was 20.8.

What about the “sum of the differences between the measured values and the initial temperature” value ([2]; substance 5 mg/kg i.p.) of the same molecule?
The value was 26.1.

What about the “sum of the differences between the measured values and the initial temperature” value ([2]; substance 10 mg/kg i.p.) of the same molecule?
The value was 32.8.

And the “sum of the differences between the measured values and the initial temperature” value ([2]; substance 20 mg/kg i.p.)?
Its value is 40.1.

And the “effectiveness in counteracting the lowering of body temperature caused by reserpine, compared with TRH” value [2]?
Its value is “marketly more effective than TRH”.

And the motility measurement ([3]; substance 3 mg/kg i.p.)?
The motility measurement was 17.0.

And the motility measurement ([3]; substance 5 mg/kg i.p.)?
Its motility measurement is 21.7.

What about the motility measurement ([3]; substance 10 mg/kg i.p.) of the same molecule?
The motility measurement was 94.1.

What about the “stimulation of the mobility of animals” value [3] of the same molecule?
Its value is “stimulate the mobility of animals”.

What about the “number of dead mice (in percent) sixty minutes after amphetamine” value ([4]; substance 10 mg/kg i.p.) of the same molecule?
The value was 15%.

And the “number of dead mice (in percent) sixty minutes after amphetamine” value ([4]; substance 20 mg/kg i.p.)?
Its value is 40%.

And the “number of dead mice (in percent) sixty minutes after amphetamine” value ([4]; substance 50 mg/kg i.p.)?
The value was 60%.

What about the “number of dead mice (in percent) sixty minutes after amphetamine” value ([4]; substance 100 mg/kg i.p.) of the same molecule?
Its value is 50%.

And the “number of dead mice (in percent) sixty minutes after amphetamine” value ([4]; substance 200 mg/kg i.p.)?
The value was 85%.

Which results are given for NC(=O)[C@@H]1CCCN1C(=O)[C@H](Cc1c[nH]cn1)NC(=O)c1cc(=O)[nH]c(=O)[nH]1.O.O [Compound B, orotyl-L-histidyl-L-prolinamide-dihydrate]?
dose required relative to TRH to obtain an equally marked thyrotropin release [1]: ten-times greater dose than TRH; sum of the differences between the measured values and the initial temperature ([2]; substance 2 mg/kg i.p.): 34.6; sum of the differences between the measured values and the initial temperature ([2]; substance 5 mg/kg i.p.): 42.3; sum of the differences between the measured values and the initial temperature ([2]; substance 10 mg/kg i.p.): 55.3; sum of the differences between the measured values and the initial temperature ([2]; substance 20 mg/kg i.p.): 67.1; effectiveness in counteracting the lowering of body temperature caused by reserpine, compared with TRH [2]: marketly more effective than TRH; motility measurement ([3]; substance 3 mg/kg i.p.): 98.0; motility measurement ([3]; substance 5 mg/kg i.p.): 106.0; motility measurement ([3]; substance 10 mg/kg i.p.): 104.0; stimulation of the mobility of animals [3]: stimulate the mobility of animals; number of dead mice (in percent) sixty minutes after amphetamine ([4]; substance 10 mg/kg i.p.): 70%; number of dead mice (in percent) sixty minutes after amphetamine ([4]; substance 20 mg/kg i.p.): 55%; number of dead mice (in percent) sixty minutes after amphetamine ([4]; substance 50 mg/kg i.p.): 75%; number of dead mice (in percent) sixty minutes after amphetamine ([4]; substance 100 mg/kg i.p.): 90%; number of dead mice (in percent) sixty minutes after amphetamine ([4]; substance 200 mg/kg i.p.): 80%; average number of shaking movements per minute ([5]; 15 minutes after application): 5.25; average number of shaking movements per minute ([5]; 30 minutes after application): 3.8; average number of shaking movements per minute ([5]; 45 minutes after application): 3.2; average number of shaking movements per minute ([5]; 60 minutes after application): 2.15; average number of shaking movements per minute ([5]; 75 minutes after application): 2.1; average number of shaking movements per minute ([5]; 90 minutes after application): 1.55; average number of shaking movements per minute ([5]; 105 minutes after application): 1.05; average number of shaking movements per minute ([5]; 120 minutes after application): 0.6; average number of shaking movements per minute ([5]; 135 minutes after application): 0.3; duration of action compared with TRH ([5]; result in words): longer acting than TRH; LD50 ([6]; intramuscularly): > 4000 mg/kg; LD50 ([6]; intraveneously): 1000 mg/kg; LD50 ([6]; orally): > 1000 mg/kg; LD50 ([7]; intramuscularly): > 4000 mg/kg; LD50 ([7]; intraveneously): 1200 mg/kg; LD50 ([7]; orally): > 1000 mg/kg; duration of effect relative to TRH [8]: several times longer; strength of stimulating effect on the central nervous system relative to TRH [8]: about five times stronger

How did the motility measurement ([3]; substance 3 mg/kg i.p.) turn out when NC(=O)[C@@H]1CCCN1C(=O)[C@H](Cc1c[nH]cn1)NC(=O)C1CSCC(=O)N1.O (stereo partly drawn) [Compound C, L-5-oxo-thiomorpholine-3-carbonyl-L-histidyl-L-prolinamide-hydrate] was run?
Its motility measurement is 51.0.

And the motility measurement ([3]; substance 5 mg/kg i.p.)?
The motility measurement was 72.0.

What about the motility measurement ([3]; substance 10 mg/kg i.p.) of the same molecule?
Its motility measurement is 69.0.

What about the “stimulation of the mobility of animals” value [3] of the same molecule?
The value was “stimulate the mobility of animals”.

What about the “number of dead mice (in percent) sixty minutes after amphetamine” value ([4]; substance 10 mg/kg i.p.) of the same molecule?
Its value is 60%.

What about the “number of dead mice (in percent) sixty minutes after amphetamine” value ([4]; substance 20 mg/kg i.p.) of the same molecule?
The value was 70%.

And the “number of dead mice (in percent) sixty minutes after amphetamine” value ([4]; substance 50 mg/kg i.p.)?
The value was 70%.

And the “number of dead mice (in percent) sixty minutes after amphetamine” value ([4]; substance 100 mg/kg i.p.)?
Its value is 70%.

And the “number of dead mice (in percent) sixty minutes after amphetamine” value ([4]; substance 200 mg/kg i.p.)?
Its value is 90%.

NC(=O)[C@@H]1CCCN1C(=O)[C@H](Cc1c[nH]cn1)NC(=O)[C@@H]1CCC(=O)N1 [TRH, pyroglutamyl-histidyl-proline amide, reference compound] was tested. Which “sum of the differences between the measured values and the initial temperature” value ([2]; substance 2 mg/kg i.p.) did it give?
Its value is 18.4.

And the “sum of the differences between the measured values and the initial temperature” value ([2]; substance 5 mg/kg i.p.)?
The value was 16.5.

What about the “sum of the differences between the measured values and the initial temperature” value ([2]; substance 10 mg/kg i.p.) of the same molecule?
Its value is 27.9.

What about the “sum of the differences between the measured values and the initial temperature” value ([2]; substance 20 mg/kg i.p.) of the same molecule?
Its value is 32.8.

What about the motility measurement ([3]; substance 3 mg/kg i.p.) of the same molecule?
The motility measurement was 0.9.

And the motility measurement ([3]; substance 5 mg/kg i.p.)?
The motility measurement was 1.2.

What about the motility measurement ([3]; substance 10 mg/kg i.p.) of the same molecule?
The motility measurement was 44.0.

What about the “number of dead mice (in percent) sixty minutes after amphetamine” value ([4]; substance 10 mg/kg i.p.) of the same molecule?
The value was 20%.

And the “number of dead mice (in percent) sixty minutes after amphetamine” value ([4]; substance 20 mg/kg i.p.)?
Its value is 25%.

And the “number of dead mice (in percent) sixty minutes after amphetamine” value ([4]; substance 50 mg/kg i.p.)?
Its value is 55%.

And the “number of dead mice (in percent) sixty minutes after amphetamine” value ([4]; substance 100 mg/kg i.p.)?
Its value is 65%.

What about the “number of dead mice (in percent) sixty minutes after amphetamine” value ([4]; substance 200 mg/kg i.p.) of the same molecule?
The value was 65%.

And the “average number of shaking movements per minute” value ([5]; 15 minutes after application)?
Its value is 2.9.

And the “average number of shaking movements per minute” value ([5]; 30 minutes after application)?
Its value is 1.0.
